Bounds are passed on as bounds.

The record followed here is US9856279B2 (AGIOS PHARMACEUTICALS, INC, priority 2011, dated 2018).

In one experiment the target is IDH1 R132H (Homo sapiens, UniProt O75874, R132H). Description: Assay for IDH1 R132H inhibitors (NADPH/aKG, resazurin detection). In kind it is biochemical. To be noted: enzyme assay of Example 12; read-out: IDH1R132H IC50. In a few lines: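 Read-out is resorufin fluorescence (Ex544/Em590) 5 min after adding a 30 μM resazurin detection mix. Before that, mutant enzyme (0.2 μg/ml in its mix) ran 50 min at room temperature with compound, 8 uM NADPH and 2 mM aKG (mix levels) in Tris pH 7.5 with NaCl, MgCl2, BSA.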
(In general: Alamar Blue is a resazurin reagent that responds to reducing activity.)

A further experiment relates to HT1080 cells. Description: Cellular assay for IDH1m inhibitors: inhibition of 2-HG production (LC-MS, 48 hours) in HT1080 cells. It counts as cell-based. To be noted: Homo sapiens, HT-1080; inhibition of 2-HG production, HT1080 cells; read-out: HT1080 IC50. In a few lines:
(§1)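 Cells were seeded at 5000/well in DMEM with 10% FBS, incubated overnight, then treated with compound (0.2% DMSO final) for 48 h at 37° C. Medium 2-HG was quantified by LC-MS. IC50 is the concentration reducing 2-HG by 50% versus DMSO control, and CellTiter-Glo viability was read at 72 h.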

The test system of a further experiment is U87MG cells. Briefly: Cellular assay for IDH1m inhibitors: inhibition of 2-HG production (LC-MS, 48 hours) in U87MG cells. It counts as cell-based. The following applies: Homo sapiens, U-87 MG, inhibition of 2-HG production, U87R132H cells; read-out: U87R132H IC50. In a few lines: as §1

Sequence of IDH1 R132H (O75874 whole entry R132H): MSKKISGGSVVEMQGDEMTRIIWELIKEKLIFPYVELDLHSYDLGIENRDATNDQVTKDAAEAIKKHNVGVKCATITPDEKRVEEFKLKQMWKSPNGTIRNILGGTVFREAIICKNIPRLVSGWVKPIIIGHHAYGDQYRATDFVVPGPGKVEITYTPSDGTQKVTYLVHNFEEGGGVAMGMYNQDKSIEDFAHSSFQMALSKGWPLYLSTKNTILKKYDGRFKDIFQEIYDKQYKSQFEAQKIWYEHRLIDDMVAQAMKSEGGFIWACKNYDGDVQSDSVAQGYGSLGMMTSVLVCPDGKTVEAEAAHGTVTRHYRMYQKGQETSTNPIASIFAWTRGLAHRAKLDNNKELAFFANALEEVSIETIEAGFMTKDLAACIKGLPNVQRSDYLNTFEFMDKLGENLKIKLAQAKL

As a reminder, the IC50 is the concentration that inhibits the measured activity by half. In the case of `C=Cc1ccnc(Nc2c(C3CC3)nc(N3CCN(C(=O)CCO)[C@H](C4CC4)C3)c(C#N)c2C)c1` [Compound 725, (R)-6-cyclopropyl-2-(3-cyclopropyl-4-(3-hydroxypropanoyl)piperazin-1-yl)-4-methyl-5-((4-vinylpyridin-2-yl)amino)nicotinonitrile], the IC50 on IDH1 R132H, in the experiment on HT1080 cells and with U87MG cells was below 500 nM throughout.

`C=Cc1cc(-c2cc(C#N)c(N3CCN(C(=O)c4ccoc4)[C@H](C4CC4)C3)nc2C2CC2)ccn1` [Compound 546, (R)-2-cyclopropyl-6-(3-cyclopropyl-4-(furan-3-carbonyl)piperazin-1-yl)-2′-vinyl-3,4′-bipyridine-5-carbonitrile]: the IC50 on IDH1 R132H, with HT1080 cells and in the experiment with U87MG cells was below 500 nM throughout.

Turning to `C#Cc1ccnc(N(c2cc(C#C)ccn2)c2cc(C#N)c(N3CCN(C(=O)CCOC)[C@H](C)C3)nc2C2CC2)c1` [Compound 714, (R)-5-(bis(4-ethynylpyridin-2-yl)amino)-6-cyclopropyl-2-(4-(3-methoxypropanoyl)-3-methylpiperazin-1-yl)nicotinonitrile], the IC50 on IDH1 R132H, in the experiment on HT1080 cells and in the experiment on U87MG cells was below 500 nM each time.

As to `COCCC(=O)N1CCN(c2nc(C3CC3)c(-c3ccc4nc(N)sc4c3)cc2C#N)C[C@H]1C` [Compound 417, (R)-5-(2-amino-benzothiazol-6-yl)-6-cyclopropyl-2-[4-(3-methoxy-propionyl)-3-methyl-piperazin-1-yl]-nicotinonitrile], the IC50 on IDH1 R132H, in the experiment on HT1080 cells and in the experiment with U87MG cells was below 500 nM in each case.

Take `C=Cc1cc(-c2cc(C#N)c(N3CCN(C(=O)CCO)[C@H](C(C)C)C3)nc2C2CC2)c2cccnc2n1` [Compound 629, (R)-6-cyclopropyl-2-(4-(3-hydroxypropanoyl)-3-isopropylpiperazin-1-yl)-5-(2-vinyl-1,8-naphthyridin-4-yl)nicotinonitrile]: the IC50 on IDH1 R132H, in the experiment with HT1080 cells and in the experiment with U87MG cells was below 500 nM each time.

Consider `CCS(=O)(=O)N1CCN(c2cc(C#N)c(N3CCN(C(=O)CCOC)[C@H](C)C3)nc2C2CC2)CC1` [Compound 377, (R)-6-cyclopropyl-5-(4-(ethylsulfonyl)piperazin-1-yl)-2-(4-(3-methoxypropanoyl)-3-methylpiperazin-1-yl)nicotinonitrile], for which the IC50 on IDH1 R132H is below 500 nM; with HT1080 cells it was 500 to 1000 nM; with U87MG cells, below 500 nM.

For `C=CC(=O)N1CCC=C(c2c(C3CC3)nc(N3CCN(C(=O)CCO)[C@H](C4CC4)C3)c(C#N)c2C)C1` [Compound 755, (R)-5-(1-acryloyl-1,2,5,6-tetrahydropyridin-3-yl)-6-cyclopropyl-2-(3-cyclopropyl-4-(3-hydroxypropanoyl)piperazin-1-yl)-4-methylnicotinonitrile], the IC50 on IDH1 R132H, in the experiment on HT1080 cells and in the experiment on U87MG cells was below 500 nM throughout.

Take `C=Cc1ccc2c(-c3cc(C#N)c(N4CCN(C(=O)CCO)[C@H](C)C4)nc3C3CC3)cccc2n1` [Compound 633, (R)-6-cyclopropyl-2-(4-(3-hydroxypropanoyl)-3-methylpiperazin-1-yl)-5-(2-vinylquinolin-5-yl)nicotinonitrile]: the IC50 on IDH1 R132H, in the experiment with HT1080 cells and in the experiment on U87MG cells was below 500 nM in each case.

In the case of `C=Cc1cc(-c2cc(C#N)c(N3CCN(C(=O)CCO)[C@H](C4CC4)C3)nc2C2CC2)c2cnn(C)c2n1` [Compound 744, (R)-6-cyclopropyl-2-(3-cyclopropyl-4-(3-hydroxypropanoyl)piperazin-1-yl)-5-(1-methyl-6-vinyl-1H-pyrazolo[3,4-b]pyridin-4-yl)nicotinonitrile], the IC50 at IDH1 R132H, in the experiment on HT1080 cells and in the experiment with U87MG cells was below 500 nM throughout.

On to `C#CC(=O)N1CC=C(c2cc(C#N)c(N3CCN(C(=O)C4CC4)[C@H](C)C3)nc2C2CC2)C1` [Compound 610, (R)-2-(4-(cyclopropanecarbonyl)-3-methylpiperazin-1-yl)-6-cyclopropyl-5-(1-propioloyl-2,5-dihydro-1H-pyrrol-3-yl)nicotinonitrile], for which the IC50 at IDH1 R132H, in the experiment on HT1080 cells and in the experiment on U87MG cells was below 500 nM each time.

As for `COCCC(=O)N1CCN(c2nc(C3CC3)c(Nc3ccnc4ccccc34)cc2C#N)C[C@H]1C` [Compound 356, (R)-6-cyclopropyl-2-(4-(3-methoxypropanoyl)-3-methylpiperazin-1-yl)-5-(quinolin-4-ylamino)nicotinonitrile], the figures for the IC50 on IDH1 R132H, in the experiment with HT1080 cells and in the experiment on U87MG cells were below 500 nM, 1000 to 10000 nM and 1000 to 10000 nM, respectively.

In the case of `C=Cc1cnnc(-c2c(C3CC3)nc(N3CCN(C(=O)C[C@H]4CCO4)[C@H](C4CC4)C3)c(C#N)c2C)c1` [Compound 768, 6-cyclopropyl-2-((R)-3-cyclopropyl-4-(2-((R)-oxetan-2-yl)acetyl)piperazin-1-yl)-4-methyl-5-(5-vinylpyridazin-3-yl)nicotinonitrile], the IC50 at IDH1 R132H, in the experiment on HT1080 cells and in the experiment on U87MG cells was below 500 nM in each case.

For `C=CS(=O)(=O)N(C)c1cccc(-c2cc(C#N)c(N3CCN(C(=O)CCOC)[C@H](C)C3)nc2C2CC2)c1` [Compound 446], the IC50 was below 500 nM at IDH1 R132H, below 500 nM with HT1080 cells and 1000 to 10000 nM in the experiment on U87MG cells.

As for `COCCC(=O)N1CCN(c2nc(C3CC3)c(-c3ccc4oc(=O)[nH]c4c3)cc2C#N)C[C@H]1C` [Compound 473, (R)-6-cyclopropyl-2-[4-(3-methoxy-propionyl)-3-methyl-piperazin-1-yl]-5-(2-oxo-2,3-dihydro-benzooxazol-5-yl)-nicotinonitrile], the IC50 at IDH1 R132H is below 500 nM; in the experiment with HT1080 cells, 1000 to 10000 nM; with U87MG cells it was 500 to 1000 nM.

In the case of `COCCC(=O)N1CCN(c2nc(C3CC3)c(-c3cccc4cnc(C)cc34)cc2C#N)C[C@H]1C` [Compound 433, (R)-6-cyclopropyl-2-(4-(3-methoxypropanoyl)-3-methylpiperazin-1-yl)-5-(3-methylisoquinolin-5-yl)nicotinonitrile], the IC50 at IDH1 R132H, with HT1080 cells and with U87MG cells was below 500 nM in each case.

Regarding `COCCC(=O)N1CCN(c2nc(C3CC3)c(-c3ccc4[nH]cnc4c3)cc2C#N)C[C@H]1C` [Compound 361, (R)-5-(1H-benzoimidazol-5-yl)-6-cyclopropyl-2-[4-(3-methoxy-propionyl)-3-methyl-piperazin-1-yl]-nicotinonitrile], the values for the IC50 on IDH1 R132H, in the experiment on HT1080 cells and in the experiment on U87MG cells were below 500 nM, 1000 to 10000 nM and 500 to 1000 nM, respectively.

Regarding `C=Cc1cc(-c2c(C3CC3)nc(N3CCN(C(=O)CC4CC4)[C@H](C4CC4)C3)c(C#N)c2C)ccn1` [Compound 787, (R)-2-cyclopropyl-6-(3-cyclopropyl-4-(2-cyclopropylacetyl)piperazin-1-yl)-4-methyl-2′-vinyl-3,4′-bipyridine-5-carbonitrile], the IC50 on IDH1 R132H, in the experiment with HT1080 cells and in the experiment on U87MG cells was below 500 nM in each case.

Consider `C=Cc1cc(-c2c(C3CC3)nc(N3CCN(C(=O)CCOC)[C@H](C4CC4)C3)c(C#N)c2C)cnn1` [Compound 749, (R)-6-cyclopropyl-2-(3-cyclopropyl-4-(3-methoxypropanoyl)piperazin-1-yl)-4-methyl-5-(6-vinylpyridazin-4-yl)nicotinonitrile], for which the half-inhibitory concentration (IC50) on IDH1 R132H, in the experiment with HT1080 cells and in the experiment on U87MG cells was below 500 nM each time.

For the molecule `C=Cc1cc(-c2cc(C#N)c(N3CCN(C(=O)CCC4CCCO4)[C@H](C4CC4)C3)nc2C2CC2)ccn1` (stereo partly drawn) [Compound 800, 2-cyclopropyl-6-((3R)-3-cyclopropyl-4-(3-(tetrahydrofuran-2-yl)propanoyl)piperazin-1-yl)-2′-vinyl-3,4′-bipyridine-5-carbonitrile], the IC50 on IDH1 R132H, with HT1080 cells and in the experiment with U87MG cells was below 500 nM throughout.

`C[C@@H]1CN(c2nc(C3CC3)c(-c3cccc4cnccc34)cc2C#N)CCN1C(=O)CC(F)(F)F` [Compound 386, (R)-6-cyclopropyl-5-(isoquinolin-5-yl)-2-(3-methyl-4-(3,3,3-trifluoropropanoyl)piperazin-1-yl)nicotinonitrile]: the IC50 at IDH1 R132H was below 500 nM; in the experiment on HT1080 cells, 1000 to 10000 nM; with U87MG cells, 500 to 1000 nM.

Take `C=Cc1ncc2c(-c3cc(C#N)c(N4CCN(C(=O)CCOC)[C@H](C(C)C)C4)nc3C3CC3)cccc2n1` [Compound 634, (R)-6-cyclopropyl-2-(3-isopropyl-4-(3-methoxypropanoyl)piperazin-1-yl)-5-(2-vinylquinazolin-5-yl)nicotinonitrile]: the IC50 on IDH1 R132H, with HT1080 cells and in the experiment on U87MG cells was below 500 nM in each case.

With `C=Cc1cnc2c(-c3cc(C#N)c(N4CCN(C(=O)CCOC)[C@H](C5CC5)C4)nc3C3CC3)cccc2n1` [Compound 644, (R)-6-cyclopropyl-2-(3-cyclopropyl-4-(3-methoxypropanoyl)piperazin-1-yl)-5-(2-vinylquinoxalin-5-yl)nicotinonitrile], the IC50 at IDH1 R132H, in the experiment with HT1080 cells and with U87MG cells was below 500 nM throughout.

Consider `C=Cc1cc(-c2cc(C#N)c(N3CCN(C(=O)CC(C)O)[C@H](C4CC4)C3)nc2C2CC2)ccn1` (stereo partly drawn) [Compound 568, 2-cyclopropyl-6-((3R)-3-cyclopropyl-4-(3-hydroxybutanoyl)piperazin-1-yl)-2′-vinyl-3,4′-bipyridine-5-carbonitrile], for which the IC50 on IDH1 R132H, with HT1080 cells and in the experiment with U87MG cells was below 500 nM throughout.
